Tests used:
[1] = biological target: human vasopressin V1a receptor (Homo sapiens (Human), UniProt P37288); experiment: Vasopressin V1a receptor binding assay; details: selectivity quotient, human V1a vs human V1b
Protocol: The test substances were dissolved in a concentration of 5 mM M in DMSO. Further dilution of these DMSO solutions took place as described for V1b.
The membrane pellet was again homogenized in a High-Pressure-Homogenizer, Polytec 50K at 1500 PSI (Heinemann, Germany) and subsequently taken up in 50 mM Tris-HCl, pH 7.4, homogenized and stored in aliquots frozen in liquid nitrogen at −190° C.
The incubation buffer was: 50 mM Tris, 10 mM MgCl2, 0.1% BSA, pH 7.4.
Duplicate determinations were carried out.
After incubation (60 minutes at room temperature), the samples were processed as described for V1b.
The binding parameters were calculated by nonlinear regression in SAS.

[2] = biological target: human vasopressin V1b receptor (Homo sapiens (Human), UniProt P47901); experiment: biochemical
human vasopressin V1b receptor, sequence (P47901 whole entry): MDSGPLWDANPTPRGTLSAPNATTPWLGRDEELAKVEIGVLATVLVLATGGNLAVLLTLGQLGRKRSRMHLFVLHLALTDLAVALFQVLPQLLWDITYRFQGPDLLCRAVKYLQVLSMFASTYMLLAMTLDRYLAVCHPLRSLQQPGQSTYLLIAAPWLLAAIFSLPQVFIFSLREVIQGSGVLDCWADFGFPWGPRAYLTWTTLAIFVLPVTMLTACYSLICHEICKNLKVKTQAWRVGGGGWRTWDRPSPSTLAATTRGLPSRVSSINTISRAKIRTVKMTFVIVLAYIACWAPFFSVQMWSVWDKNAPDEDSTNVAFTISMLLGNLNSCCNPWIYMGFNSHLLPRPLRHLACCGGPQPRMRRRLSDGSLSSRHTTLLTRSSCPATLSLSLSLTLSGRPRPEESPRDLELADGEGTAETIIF

human vasopressin V1a receptor, sequence (P37288 whole entry): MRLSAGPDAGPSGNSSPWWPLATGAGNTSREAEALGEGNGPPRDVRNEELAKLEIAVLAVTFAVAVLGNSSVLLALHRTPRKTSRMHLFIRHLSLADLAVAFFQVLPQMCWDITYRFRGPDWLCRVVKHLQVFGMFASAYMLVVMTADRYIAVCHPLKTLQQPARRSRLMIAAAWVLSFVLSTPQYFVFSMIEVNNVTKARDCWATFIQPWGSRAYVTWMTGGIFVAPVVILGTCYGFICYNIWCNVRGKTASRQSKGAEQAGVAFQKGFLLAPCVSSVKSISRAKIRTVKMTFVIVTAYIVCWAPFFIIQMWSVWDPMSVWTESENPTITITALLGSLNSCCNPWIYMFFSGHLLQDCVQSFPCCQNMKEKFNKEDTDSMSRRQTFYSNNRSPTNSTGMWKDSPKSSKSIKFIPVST

Row | Ki(h-V1a)/Ki(h-V1b) [1] | Ki [2] [nM] | SMILES
1 | +++ (>75) | 1 to 10 | CC(C)NC(=O)Cn1c(-c2cccc(Cl)c2)nc2ccc([C@H]3C[C@@H](CN4CCCC(C#N)C4)C3)cc2c1=O (relative stereo) [Example 14, cis-2-[2-(3-Chlorophenyl)-6-[3-[(3-cyano-1-piperidyl)methyl]cyclobutyl]-4-oxo-quinazolin-3-yl]-N-isopropyl-acetamide]
2 | +++ (>75) | 1 to 10 | CC(C)NC(=O)Cn1c(-c2cccc(Cl)c2)nc2ccc([C@H]3C[C@@H](CN4CCCC(F)C4)C3)cc2c1=O (relative stereo) [Example 39, cis-2-[2-(3-Chlorophenyl)-6-[3-[(3-fluoro-1-piperidyl)methyl]cyclobutyl]-4-oxo-quinazolin-3-yl]-N-isopropyl-acetamide]
3 | +++ (>75) | 10 to 100 | CC(C)NC(=O)Cn1c(-c2cccc(Cl)c2)nc2ccc([C@H]3C[C@@H](CN4CC(C)OC(C)C4)C3)cc2c1=O (relative stereo) [Example 43, cis-2-[2-(3-Chlorophenyl)-6-[3-[(2,6-dimethylmorpholin-4-yl)methyl]cyclobutyl]-4-oxo-quinazolin-3-yl]-N-isopropyl-acetamide]
4 | +++ (>75) | 10 to 100 | CC(C)NC(=O)Cn1c(-c2cccc(Cl)c2)nc2ccc(C3=CC(CN4CCCCC4)C3)cc2c1=O (stereo not drawn) [Example 1, 2-(2-(3-Chlorophenyl)-4-oxo-6-(3-(piperidin-1-ylmethyl)cyclobut-1-en-1-yl)quinazolin-3(4H)-yl)-N-isopropylacetamide]
5 | +++ (>75) | 1 to 10 | CC(C)NC(=O)Cn1c(-c2cccc(Cl)c2)nc2ccc([C@H]3C[C@@H](CN4CCCCC4)C3)cc2c1=O [Example 2a, cis-2-[2-(3-chlorophenyl)-4-oxo-6-[3-(1-piperidylmethyl)cyclobutyl]quinazolin-3-yl]-N-isopropyl-acetamide]
6 | +++ (>75) | 10 to 100 | CC(C)NC(=O)Cn1c(-c2cccc(Cl)c2)nc2ccc([C@H]3C[C@H](CN4CCCCC4)C3)cc2c1=O [Example 2b, trans-2-[2-(3-chlorophenyl)-4-oxo-6-[3-(1-piperidylmethyl)cyclobutyl]quinazolin-3-yl]-N-isopropyl-acetamide]
7 | ++ (25-75) | 10 to 100 | CC(C)NC(=O)Cn1c(-c2cccc(Cl)c2)nc2ccc(C3CC3CCN3CCCCC3)cc2c1=O (stereo not drawn) [Example 3, 2-[2-(3-Chlorophenyl)-4-oxo-6-[2-[2-(1-piperidyl)ethyl]cyclopropyl]quinazolin-3-yl]-N-isopropyl-acetamide]
8 | +++ (>75) | 10 to 100 | CC(C)NC(=O)Cn1c(-c2cccc(Cl)c2)nc2ccc(C3CC3CN3CCCCC3)cc2c1=O (stereo not drawn) [Example 4, 2-[2-(3-Chlorophenyl)-4-oxo-6-[2-(1-piperidylmethyl)cyclopropyl]quinazolin-3-yl]-N-isopropyl-acetamide]
9 | +++ (>75) | 10 to 100 | CC(C)NC(=O)Cn1c(-c2cccc(Cl)c2)nc2ccc([C@H]3C[C@@H](CN4CCC(C#N)CC4)C3)cc2c1=O [Example 7, Cis-2-[2-(3-Chlorophenyl)-6-[3-[(4-cyano-1-piperidyl)methyl]cyclobutyl]-4-oxo-quinazolin-3-yl]-N-isopropyl-acetamide]
10 | +++ (>75) | < 1 | CC(C)NC(=O)Cn1c(-c2cccc(Cl)c2)nc2ccc([C@H]3C[C@@H](CN4CCSCC4)C3)cc2c1=O [Example 8, cis-2-[2-(3-Chlorophenyl)-4-oxo-6-[3-(thiomorpholinomethyl)cyclobutyl]quinazolin-3-yl]-N-isopropyl-acetamide]
11 | +++ (>75) | 10 to 100 | CC(C)NC(=O)Cn1c(-c2cccc(Cl)c2)nc2ccc([C@H]3C[C@@H](CN4CCCC4)C3)cc2c1=O [Example 9, cis-2-[2-(3-Chlorophenyl)-4-oxo-6-[3-(pyrrolidin-1-ylmethyl)cyclobutyl]quinazolin-3-yl]-N-isopropyl-acetamide]
12 | +++ (>75) | 1 to 10 | COC1CCN(C[C@H]2C[C@@H](c3ccc4nc(-c5cccc(Cl)c5)n(CC(=O)NC(C)C)c(=O)c4c3)C2)CC1 [Example 10, cis-2-[2-(3-Chlorophenyl)-6-[3-[(4-methoxy-1-piperidyl)methyl]cyclobutyl]-4-oxo-quinazolin-3-yl]-N-isopropyl-acetamide]
13 | +++ (>75) | 1 to 10 | CC(C)NC(=O)Cn1c(-c2cccc(Cl)c2)nc2ccc([C@H]3C[C@@H](CN4CC[C@@H](F)C4)C3)cc2c1=O [Example 11, cis-2-[2-(3-Chlorophenyl)-6-[3-[[(3R)-3-fluoropyrrolidin-1-yl]methyl]cyclobutyl]-4-oxo-quinazolin-3-yl]-N-isopropyl-acetamide]
14 | +++ (>75) | 1 to 10 | CC(C)NC(=O)Cn1c(-c2cccc(Cl)c2)nc2ccc([C@H]3C[C@@H](CN4CCC(F)(F)CC4)C3)cc2c1=O [Example 12, cis-2-[2-(3-Chlorophenyl)-6-[3-[(4,4-difluoro-1-piperidyl)methyl]cyclobutyl]-4-oxo-quinazolin-3-yl]-N-isopropyl-acetamide]
15 | +++ (>75) | 1 to 10 | CC(C)NC(=O)Cn1c(-c2cccc(Cl)c2)nc2ccc([C@H]3C[C@@H](CN4CCOCC4)C3)cc2c1=O [Example 13, cis-2-[2-(3-Chlorophenyl)-6-[3-(morpholinomethyl)cyclobutyl]-4-oxo-quinazolin-3-yl]-N-isopropyl-acetamide]
16 | +++ (>75) | 10 to 100 | CCN(CC)C[C@H]1C[C@@H](c2ccc3nc(-c4cccc(Cl)c4)n(CC(=O)NC(C)C)c(=O)c3c2)C1 [Example 15, cis-2-[2-(3-Chlorophenyl)-6-[3-(diethylaminomethyl)cyclobutyl]-4-oxo-quinazolin-3-yl]-N-isopropyl-acetamide]
17 | +++ (>75) | 1 to 10 | CC(C)NC(=O)Cn1c(-c2cccc(Cl)c2)nc2ccc([C@H]3C[C@@H](CN4CC[C@H](F)C4)C3)cc2c1=O [Example 16, cis-2-[2-(3-Chlorophenyl)-6-[3-[ [(3S)-3-fluoropyrrolidin-1-yl]methyl]cyclobutyl]-4-oxo-quinazolin-3-yl]-N-isopropyl-acetamide]
18 | +++ (>75) | 10 to 100 | CC(C)NC(=O)Cn1c(-c2cccc(Cl)c2)nc2ccc([C@H]3C[C@@H](CN(C)C)C3)cc2c1=O [Example 17, cis-2-[2-(3-Chlorophenyl)-6-[3-(dimethylaminomethyl)cyclobutyl]-4-oxo-quinazolin-3-yl]-N-isopropyl-acetamide]
19 | +++ (>75) | 1 to 10 | CC(C)NC(=O)Cn1c(-c2cccc(Cl)c2)nc2ccc([C@H]3C[C@@H](CN4CC=CCC4)C3)cc2c1=O [Example 18, cis-2-[2-(3-Chlorophenyl)-6-[3-(3,6-dihydro-2H-pyridin-1-ylmethyl)cyclobutyl]-4-oxo-quinazolin-3-yl]-N-isopropyl-acetamide]
20 | +++ (>75) | 1 to 10 | CC(C)NC(=O)Cn1c(-c2cccc(Cl)c2)nc2ccc([C@H]3C[C@@H](CN4CC(F)C4)C3)cc2c1=O [Example 19, cis-2-[2-(3-Chlorophenyl)-6-[3-[(3-fluoroazetidin-1-yl)methyl]cyclobutyl]-4-oxo-quinazolin-3-yl]-N-isopropyl-acetamide]
21 | +++ (>75) | 10 to 100 | CCOC1CCN(C[C@H]2C[C@@H](c3ccc4nc(-c5cccc(Cl)c5)n(CC(=O)NC(C)C)c(=O)c4c3)C2)CC1 [Example 20, cis-2-[2-(3-Chlorophenyl)-6-[3-[(4-ethoxy-1-piperidyl)methyl]cyclobutyl]-4-oxo-quinazolin-3-yl]-N-isopropyl-acetamide]
22 | +++ (>75) | 1 to 10 | CC(C)NC(=O)Cn1c(-c2cccc(Cl)c2)nc2ccc([C@H]3C[C@@H](CN4CCCCCC4)C3)cc2c1=O [Example 21, cis-2-[6-[3-(Azepan-1-ylmethyl)cyclobutyl]-2-(3-chlorophenyl)-4-oxo-quinazolin-3-yl]-N-isopropyl-acetamide]
23 | +++ (>75) | 1 to 10 | CC1CCN(C[C@H]2C[C@@H](c3ccc4nc(-c5cccc(Cl)c5)n(CC(=O)NC(C)C)c(=O)c4c3)C2)CC1 [Example 22, cis-2-[2-(3-Chlorophenyl)-6-[3-[(4-methyl-1-piperidyl)methyl]cyclobutyl]-4-oxo-quinazolin-3-yl]-N-isopropyl-acetamide]
24 | +++ (>75) | 10 to 100 | CC(C)NC(=O)Cn1c(-c2cccc(Cl)c2)nc2ccc([C@H]3C[C@@H](CN4CC[C@H](C)C4)C3)cc2c1=O [Example 24, cis-2-[2-(3-Chlorophenyl)-6-[3-[[(3S)-3-methylpyrrolidin-1-yl]methyl]cyclobutyl]-4-oxo-quinazolin-3-yl]-N-isopropyl-acetamide]
25 |  | 1 to 10 | CC(C)NC(=O)Cn1c(-c2cccc(Cl)c2)nc2ccc([C@H]3C[C@@H](CN4CC(O)C4)C3)cc2c1=O [Example 40, cis-2-[2-(3-Chlorophenyl)-6-[3-[(3-hydroxyazetidin-1-yl)methyl]cyclobutyl]-4-oxo-quinazolin-3-yl]-N-isopropyl-acetamide]

Row | SMILES | Ki(h-V1a)/Ki(h-V1b) [1] | Ki [2] [nM]
26 | CC(C)NC(=O)Cn1c(-c2cccc(Cl)c2)nc2ccc([C@H]3C[C@@H](CN4C5CCC4CC(O)C5)C3)cc2c1=O (relative stereo) [Example 23, cis-2-[2-(3-Chlorophenyl)-6-[3-[(3-hydroxy-8-azabicyclo[3.2.1]octan-8-yl)methyl]cyclobutyl]-4-oxo-quinazolin-3-yl]-N-isopropyl-acetamide] | +++ (>75) | 1 to 10
